Here are results for 22 compounds from patent publication US20100249076A1, “PRODRUGS OF 9-AMINOMETHYL TETRACYCLINE COMPOUNDS” (priority 2003, published 2010).

SMILES strings stand for the structures. Read-outs that look alike come from different tables or passages of the source. Some results are limits rather than exact numbers.

Holding throughout (format): in vivo
For assay [1], the system named is S. pneumoniae 157E (tet^S). The experiment in a line: Oral efficacy screen, murine model of S. pneumoniae systemic infection (survival). The note with it: Streptococcus pneumoniae, 1 h, read-out: % survival at 10 (po) mg/kg. The method, then:
The following example was used to assess the oral bioavailability of compounds of the invention in an oral efficacy screen in murine models of infection. The compounds were screened by administering a single 10 mg/kg oral dose to mice 1 hour after administration of a lethal intraperitoneal inoculum of S. pneumoniae 157E (tet^S).
In Table 1 below, compounds with a survival rate of ≧80% are indicated with ‘***”; compounds with a survival rate of ≧60% are indicated with ‘**” and compounds with a survival rate of […] are indicated with ‘*’. Compounds with a survival rate of less than 20% are indicated with ‘−’.

The subject of a further assay is S. pneumoniae 157E. The experiment in a line: Oral efficacy (PD50) in mice with acute systemic infection by susceptible S. pneumoniae. The note with it: Streptococcus pneumoniae, read-out: PD50, S. pneumoniae 157E. How it is done:
(§1) Relative to linezolid, the PD50 values for a number of the compounds were within an 2-fold range against the resistant organism. Compounds with PD50 values of less than 7 mg/kg/dose are indicated with “***.” Compounds with PD50 values of less than 14 mg/kg/dose but greater than 7 mg/kg/dose are indicated with “**.” Compounds with PD50 values of greater than 14 mg/kg/dose, but less than 21 mg/kg/dose are indicated with “*.” Compounds with PD50 values greater than 21 mg/kg/dose are indicated with “−”

A further assay deals with S. pneumoniae 700905. The assay is described as follows: Oral efficacy (PD50) in mice with acute systemic infection by resistant S. pneumoniae. The note with it: Streptococcus pneumoniae, resistant S. pneumoniae 700905. How it is done:
as §1

Setting [2] is: mice, oral, acute systemic infection, susceptible S. pneumoniae 157E.

Turning to `CN(C)c1cc(CN(CC(C)(C)C)C(=O)OCOC(=O)C(C)(C)C)c(O)c2c1C[C@H]1C[C@H]3[C@H](N(C)C)C(O)=C(C(N)=O)C(=O)[C@@]3(O)C(O)=C1C2=O` [A], in assay [1], the responders at 10 mg/kg was more than 80%. Besides, the ED50 in the assay with S. pneumoniae 157E (157E, po) was less than 7 mg/kg; with S. pneumoniae 700905, less than 7 mg/kg.

For the compound `CC1(C)S[C@@H]2[C@H](NC(=O)[C@H](N)c3ccccc3)C(=O)N2[C@H]1C(=O)O` [Ampicillin, reference compound], the ED50 in the assay on S. pneumoniae 157E (setting [2]) lay within 14 to 21 mg/kg.

`CC[C@H]1OC(=O)[C@H](C)[C@@H](O[C@H]2C[C@@](C)(OC)[C@@H](O)[C@H](C)O2)[C@H](C)[C@@H](O[C@@H]2O[C@H](C)C[C@H](N(C)C)[C@H]2O)[C@](C)(O)C[C@@H](C)CN(C)[C@H](C)[C@@H](O)[C@]1(C)O` [Azithromycin, reference compound]: the ED50 in the assay on S. pneumoniae 157E (setting [2]) was in the range of 7 to 14 mg/kg.

Consider `CC(=O)OCOC(=O)N(Cc1cc(N(C)C)c2c(c1O)C(=O)C1=C(O)[C@]3(O)C(=O)C(C(N)=O)=C(O)[C@@H](N(C)C)[C@@H]3C[C@@H]1C2)CC(C)(C)C` [B], for which the responders at 10 mg/kg in assay [1] was more than 80%. For the same compound, the ED50 in the assay with S. pneumoniae 157E (157E, po) lay within 7 to 14 mg/kg; with S. pneumoniae 700905, 7 to 14 mg/kg.

In the case of `CN(C)c1cc(CN(CC(C)(C)C)C(=O)OCOC(=O)c2ccccc2)c(O)c2c1C[C@H]1C[C@H]3[C@H](N(C)C)C(O)=C(C(N)=O)C(=O)[C@@]3(O)C(O)=C1C2=O` [D], the responders at 10 mg/kg in assay [1] was more than 0%. The ED50 in the assay with S. pneumoniae 157E (157E, po) is less than 7 mg/kg.

For `C[C@H]1c2cccc(O)c2C(=O)C2=C(O)[C@]3(O)C(=O)C(C(N)=O)=C(O)[C@@H](N(C)C)[C@@H]3[C@@H](O)[C@@H]21` [Doxycycline, reference compound], the ED50 in the assay on S. pneumoniae 157E (setting [2]) is less than 7 mg/kg.

On to `CN(C)c1cc(CN(CC(C)(C)C)C(=O)OCOC(=O)CCc2ccccc2)c(O)c2c1C[C@H]1C[C@H]3[C@H](N(C)C)C(O)=C(C(N)=O)C(=O)[C@@]3(O)C(O)=C1C2=O` [E], for which the responders at 10 mg/kg in assay [1] was more than 0%.

For `CN(C)c1cc(CN(CC(C)(C)C)C(=O)OCOC(=O)C2CCCCC2)c(O)c2c1C[C@H]1C[C@H]3[C@H](N(C)C)C(O)=C(C(N)=O)C(=O)[C@@]3(O)C(O)=C1C2=O` [F], the responders at 10 mg/kg in assay [1] was more than 60%. Moreover, the ED50 was less than 7 mg/kg with S. pneumoniae 157E (157E, po) and 14 to 21 mg/kg with S. pneumoniae 700905.

For the compound `COc1ccc(C(=O)OCOC(=O)N(Cc2cc(N(C)C)c3c(c2O)C(=O)C2=C(O)[C@]4(O)C(=O)C(C(N)=O)=C(O)[C@@H](N(C)C)[C@@H]4C[C@@H]2C3)CC(C)(C)C)cc1` [G], the responders at 10 mg/kg in assay [1] was more than 60%. Further, the ED50 with S. pneumoniae 157E (157E, po) lay within 7 to 14 mg/kg.

Turning to `CN(C)c1cc(CN(CC(C)(C)C)C(=O)OCOC(=O)CC(C)(C)C)c(O)c2c1C[C@H]1C[C@H]3[C@H](N(C)C)C(O)=C(C(N)=O)C(=O)[C@@]3(O)C(O)=C1C2=O` [H], the responders at 10 mg/kg in assay [1] was more than 80%. The ED50 in the assay on S. pneumoniae 157E (157E, po) was less than 7 mg/kg; in the assay with S. pneumoniae 700905, 7 to 14 mg/kg.

For the compound `CC(OC(=O)N(Cc1cc(N(C)C)c2c(c1O)C(=O)C1=C(O)[C@]3(O)C(=O)C(C(N)=O)=C(O)[C@@H](N(C)C)[C@@H]3C[C@@H]1C2)CC(C)(C)C)OC(=O)C(C)(C)C` (some centres unmarked) [I], the responders at 10 mg/kg in assay [1] was more than 80%. Further, in the assay with S. pneumoniae 700905, the ED50 was in the range of 7 to 14 mg/kg.

Consider `COCC(=O)OCOC(=O)N(Cc1cc(N(C)C)c2c(c1O)C(=O)C1=C(O)[C@]3(O)C(=O)C(C(N)=O)=C(O)[C@@H](N(C)C)[C@@H]3C[C@@H]1C2)CC(C)(C)C` [J], for which, in assay [1], the responders at 10 mg/kg is more than 0%.

As for `COCCC(=O)OCOC(=O)N(Cc1cc(N(C)C)c2c(c1O)C(=O)C1=C(O)[C@]3(O)C(=O)C(C(N)=O)=C(O)[C@@H](N(C)C)[C@@H]3C[C@@H]1C2)CC(C)(C)C` [K], the responders at 10 mg/kg in assay [1] was more than 80%. Further, the ED50 with S. pneumoniae 157E (157E, po) was less than 7 mg/kg; in the assay on S. pneumoniae 700905 it was 14 to 21 mg/kg.

As to `COCCOCC(=O)OCOC(=O)N(Cc1cc(N(C)C)c2c(c1O)C(=O)C1=C(O)[C@]3(O)C(=O)C(C(C)=O)=C(O)[C@@H](N(C)C)[C@@H]3C[C@@H]1C2)CC(C)(C)C` [L], the responders at 10 mg/kg in assay [1] was more than 60%.

As for `CC(=O)NC[C@H]1CN(c2ccc(N3CCOCC3)c(F)c2)C(=O)O1` [Linezolid, reference compound], the ED50 in the assay with S. pneumoniae 157E (setting [2]) was less than 7 mg/kg; with S. pneumoniae 700905 it was 7 to 14 mg/kg.

In the case of `CN(C)c1cc(CN(CC(C)(C)C)C(=O)OCOC(=O)c2ccc(C(F)(F)F)cc2)c(O)c2c1C[C@H]1C[C@H]3[C@H](N(C)C)C(O)=C(C(N)=O)C(=O)[C@@]3(O)C(O)=C1C2=O` [M], the responders at 10 mg/kg in assay [1] is more than 80%.

As to `CN(C)c1ccc(O)c2c1C[C@H]1C[C@H]3[C@H](N(C)C)C(O)=C(C(N)=O)C(=O)[C@@]3(O)C(O)=C1C2=O` [Minocycline, reference compound], in the assay with S. pneumoniae 157E (setting [2]), the ED50 lay within 7 to 14 mg/kg.

In the case of `CN(C)c1cc(CN(CC(C)(C)C)C(=O)OCOC(=O)c2c(F)cccc2F)c(O)c2c1C[C@H]1C[C@H]3[C@H](N(C)C)C(O)=C(C(N)=O)C(=O)[C@@]3(O)C(O)=C1C2=O` [N], in assay [1], the responders at 10 mg/kg was more than 80%. In addition, in the assay on S. pneumoniae 700905, the ED50 was in the range of 14 to 21 mg/kg.

As for `CN(C)c1cc(CN(CC(C)(C)C)C(=O)OCOC(=O)Cc2ccccc2)c(O)c2c1C[C@H]1C[C@H]3[C@H](N(C)C)C(O)=C(C(N)=O)C(=O)[C@@]3(O)C(O)=C1C2=O` [O], the responders at 10 mg/kg in assay [1] was more than 60%. Moreover, the ED50 in the assay with S. pneumoniae 700905 lay within 7 to 14 mg/kg.

As for `CCC(=O)OCOC(=O)N(Cc1cc(N(C)C)c2c(c1O)C(=O)C1=C(O)[C@]3(O)C(=O)C(C(N)=O)=C(O)[C@@H](N(C)C)[C@@H]3C[C@@H]1C2)CC(C)(C)C` [P], the responders at 10 mg/kg in assay [1] is more than 80%. The same compound gave an ED50 with S. pneumoniae 700905 of 14 to 21 mg/kg.

Consider `CCCC(=O)OCOC(=O)N(Cc1cc(N(C)C)c2c(c1O)C(=O)C1=C(O)[C@]3(O)C(=O)C(C(N)=O)=C(O)[C@@H](N(C)C)[C@@H]3C[C@@H]1C2)CC(C)(C)C` [Q], for which the responders at 10 mg/kg in assay [1] was more than 80%. Besides, the ED50 in the assay with S. pneumoniae 700905 fell in the range of 14 to 21 mg/kg.

With `CC(C)C(=O)OCOC(=O)N(Cc1cc(N(C)C)c2c(c1O)C(=O)C1=C(O)[C@]3(O)C(=O)C(C(N)=O)=C(O)[C@@H](N(C)C)[C@@H]3C[C@@H]1C2)CC(C)(C)C` [R], in assay [1], the responders at 10 mg/kg was more than 80%. The compound further yielded an ED50 in the assay with S. pneumoniae 700905 of 7 to 14 mg/kg.
